Data taken from PMC9841532, “Exploring the Effect of Halogenation in a Series of Potent and Selective A2B Adenosine Receptor Antagonists” (Journal of Medicinal Chemistry, 2022).
Read-outs that look alike come from different tables or passages of the source.

How the values were obtained:
hA2AAR = target: T1, hA2AAR (Homo sapiens, UniProt P29274); test: Radioligand binding competition, [3H]ZM241385, membranes from HeLa-A2A cells; conditions: for % at 1 μM hA2A (percentage displacement of specific binding): [3H]ZM241385, human HeLa cells, n = 2
T1 construct: expressed in transfected cells; host or cells: HeLa (HeLa-A2A) cell membranes
T1 sequence (P29274 whole entry): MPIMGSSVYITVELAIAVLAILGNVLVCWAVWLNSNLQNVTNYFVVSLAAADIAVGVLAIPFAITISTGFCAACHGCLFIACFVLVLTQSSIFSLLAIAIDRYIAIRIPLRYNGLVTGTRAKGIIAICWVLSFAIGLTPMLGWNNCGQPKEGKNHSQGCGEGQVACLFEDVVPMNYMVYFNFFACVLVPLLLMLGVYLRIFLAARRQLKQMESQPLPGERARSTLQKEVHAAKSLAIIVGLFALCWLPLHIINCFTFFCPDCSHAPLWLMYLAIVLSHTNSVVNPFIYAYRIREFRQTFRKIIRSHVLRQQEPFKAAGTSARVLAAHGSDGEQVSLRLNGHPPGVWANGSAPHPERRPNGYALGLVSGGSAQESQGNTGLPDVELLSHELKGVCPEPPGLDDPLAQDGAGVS
Summary of the method: (§1)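 Racemates, plus selected enantiomers after chiral resolution, were tested at 25 °C, with a 60 min incubation for one subtype and 30 min for others. Non-specific binding was defined with 10 μM or 100 μM R-PIA. Bound radioactivity was counted after washing and filtration.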

hA1AR [1] = target: T2, hA1AR (Homo sapiens, UniProt P30542); test: Radioligand binding competition, [3H]DPCPX, membranes from CHO-A1 cells; conditions: for % at 1 μM hA1 (percentage displacement of specific binding): [3H]DPCPX, human CHO cells, n = 2
T2 sequence (P30542 1-326): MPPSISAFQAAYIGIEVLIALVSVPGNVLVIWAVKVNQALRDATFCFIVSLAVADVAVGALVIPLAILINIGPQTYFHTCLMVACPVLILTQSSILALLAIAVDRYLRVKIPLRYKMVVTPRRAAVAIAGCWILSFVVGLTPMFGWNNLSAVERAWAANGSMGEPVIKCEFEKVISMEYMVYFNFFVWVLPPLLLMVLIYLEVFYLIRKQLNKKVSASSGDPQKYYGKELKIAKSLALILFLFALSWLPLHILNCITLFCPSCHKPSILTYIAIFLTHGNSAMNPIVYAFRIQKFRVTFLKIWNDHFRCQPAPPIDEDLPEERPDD
Summary of the method: as §1

hA3AR [2] = target: T3, hA3AR (Homo sapiens, UniProt P0DMS8); test: Radioligand binding competition, [3H]NECA, membranes from HeLa-A3 cells; conditions: 1 μM, [3H]NECA, human HeLa cells, n = 2
T3 construct: expressed in transfected cells; host or cells: HeLa (HeLa-A3) cell membranes
T3 sequence (P0DMS8 1-318): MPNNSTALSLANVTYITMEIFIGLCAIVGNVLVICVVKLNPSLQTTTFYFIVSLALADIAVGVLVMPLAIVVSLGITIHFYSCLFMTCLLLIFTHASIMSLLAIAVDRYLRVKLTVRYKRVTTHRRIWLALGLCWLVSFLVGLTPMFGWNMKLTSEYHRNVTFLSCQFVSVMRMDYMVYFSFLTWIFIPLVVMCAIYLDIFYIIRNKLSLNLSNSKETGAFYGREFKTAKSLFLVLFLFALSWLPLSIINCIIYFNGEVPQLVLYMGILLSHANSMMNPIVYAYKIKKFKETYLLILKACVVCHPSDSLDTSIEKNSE
Summary of the method: as §1

hA2BAR = target: T4, hA2BAR (Homo sapiens, UniProt P29275); test: Radioligand binding competition, [3H]DPCPX, membranes from HEK-293-A2B cells; set-up: Exp. dG: unit not given here; conditions: for Ki: read-out: Ki hA2B; for Exp. dG: experimental binding free energy, Supplementary Table S3, unit not given (errors in kcal/mol); for % at 1 μM hA2B (percentage displacement of specific binding): [3H]DPCPX, human HEK-293 cells, n = 2
T4 construct: host or cells: HEK-293 (HEK-293-A2B) cell membranes
T4 sequence (P29275 1-332): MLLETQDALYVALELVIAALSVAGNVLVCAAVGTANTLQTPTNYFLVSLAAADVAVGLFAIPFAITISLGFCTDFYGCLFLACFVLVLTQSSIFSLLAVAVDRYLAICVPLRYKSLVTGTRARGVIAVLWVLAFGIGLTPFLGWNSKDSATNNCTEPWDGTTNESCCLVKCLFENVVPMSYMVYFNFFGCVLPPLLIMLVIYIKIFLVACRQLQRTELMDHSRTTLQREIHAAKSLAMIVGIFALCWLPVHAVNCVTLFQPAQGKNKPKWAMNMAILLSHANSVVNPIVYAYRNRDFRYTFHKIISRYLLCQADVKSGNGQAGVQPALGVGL
Summary of the method: as §1

A2B = conditions: cited from earlier work
hA1AR [3] = target: T2, hA1AR; conditions: prototype series, [3H]DPCPX, human CHO cells ref 30, 31; cited from earlier work
hA3AR [4] = target: T3, hA3AR; conditions: prototype series, [3H]NECA, human HeLa cells ref 30, 31; cited from earlier work
[5] = Human microsomal stability; type: in vitro ADME; conditions: human, human microsomes, pH 7.4; read-out: microsomal stability t1/2
Method: The human microsomal stability of selected compounds was evaluated by following a previously described method.[31] The human microsomes employed were purchased from Tebu-Xenotech. The compound was incubated with the microsomes at 37 °C in a 50 mM phosphate buffer (pH = 7.4) containing 3 mM MgCl2, 1 mM NADP, 10 mM glucose-6-phosphate, and 1 U/mL glucose-6-phosphate-dehydrogenase. Samples (75 μL) were taken from each well at 0, 10, 20, 40, and 60 min and transferred to a plate containing 4 °C 75 μL acetonitrile and 30 μL of 0.5% formic acid in water was added for improving the chromatographic conditions. The plate was centrifuged (46,000 g, 30 min), and supernatants were taken and analyzed in a UPLC-MS/MS (Xevo TQD, Waters) by employing a BEH C18 column and an isocratic gradient of 0.1% formic acid in water:0.1% formic acid acetonitrile (60:40). The metabolic stability of the compounds was calculated from the logarithm of the remaining compounds at each of the time point studied.

[6] = displacement of specific [3H]DPCPX binding in human HEK-293 cells, n = 3
[7] = Figure 1, representative A2B antagonists ref 28-32, read-out: Ki

Compound | % at 1 μM hA2A (percentage displacement of specific binding) (hA2AAR) | % at 1 μM hA1 (percentage displacement of specific binding) (hA1AR [1]) | % at 1 μM hA3 (percentage displacement of specific binding) (hA3AR [2]) | Ki (hA2BAR; [6]) | further results
CCOC(=O)C1=C(C)Nc2nc3cc(Br)ccc3n2C1c1ccsc1 (centres unmarked) [16w] | 9% | 1% | 1% | 537 ± 8 nM | –
CC1=C(C(=O)OC(C)C)C(c2ccsc2)n2c(nc3cc(Br)ccc32)N1 (centres unmarked) [16x] | 1% | 2% | 4% | 61.1 ± 1.8 nM | –
CCOC(=O)C1=C(C)Nc2nc3ccc(F)cc3n2C1c1cocn1 (centres unmarked) [17a] | 4% | 43% | 26% | 44.7 ± 1.4 nM | Exp. dG (hA2BAR): -10.02
CC1=C(C(=O)OC(C)C)C(c2cocn2)n2c(nc3ccc(F)cc32)N1 (centres unmarked) [17b] | 19% | 34% | 22% | 7.6 ± 0.6 nM | Exp. dG (hA2BAR): -11.07; Ki (hA2BAR): < 10 nM
CCOC(=O)C1=C(C)Nc2nc3ccc(Cl)cc3n2C1c1cocn1 (centres unmarked) [17c] | 14% | – | 11% | 25.6 ± 1.2 nM | Ki (hA1AR [1]; displacement of specific [3H]DPCPX binding in human CHO cells, n = 3, read-out: Ki hA1): 227 nM; Exp. dG (hA2BAR): -10.35
CC1=C(C(=O)OC(C)C)C(c2cocn2)n2c(nc3ccc(Cl)cc32)N1 (centres unmarked) [17d] | 1% | 27% | 20% | 102 ± 7 nM | Exp. dG (hA2BAR): -9.528
CCOC(=O)C1=C(C)Nc2nc3cc(F)ccc3n2C1c1cocn1 (centres unmarked) [18a] | 16% | 25% | 16% | 14.7 ± 1.1 nM | Exp. dG (hA2BAR): -10.68
CCOC(=O)C1=C(C)Nc2nc3cc(Cl)ccc3n2C1c1cocn1 (centres unmarked) [18c] | 13% | 30% | 15% | 8.6 ± 0.4 nM | Exp. dG (hA2BAR): -11; Ki (hA2BAR): < 10 nM
CC1=C(C(=O)OC(C)C)C(c2cocn2)n2c(nc3cc(Cl)ccc32)N1 (centres unmarked) [18d] | 35% | 23% | 23% | 6.4 ± 0.7 nM | Exp. dG (hA2BAR): -11.17; Ki (hA2BAR): < 10 nM
CC1=C(C(=O)OC(C)C)[C@H](c2ccco2)n2c(nc3cc(F)ccc32)N1 [(R)-16b] | 5% | 15% | 19% | – | % at 1 μM hA2B (percentage displacement of specific binding) (hA2BAR): 41%
CC1=C(C(=O)OC(C)C)[C@H](c2ccco2)n2c(nc3cc(Cl)ccc32)N1 [(R)-16j] | 37% | 7% | 5% | – | % at 1 μM hA2B (percentage displacement of specific binding) (hA2BAR): 51%
CC1=C(C(=O)OC(C)C)[C@@H](c2ccoc2)n2c(nc3cc(Cl)ccc32)N1 [(R)-16l] | – | 37% | 24% | 2.6 ± 0.3 nM | Ki (hA2AAR; displacement of specific [3H]ZM241385 binding in human HeLa cells, n = 3, read-out: Ki hA2A): 96.3 ± 6 nM
CC1=C(C(=O)OC(C)C)[C@H](c2ccco2)n2c(nc3cc(Br)ccc32)N1 [(R)-16r] | 7% | 12% | 2% | – | % at 1 μM hA2B (percentage displacement of specific binding) (hA2BAR): 35%
CCOC(=O)C1=C(C)Nc2nc3cc(Cl)ccc3n2[C@H]1c1cocn1 [(R)-18c] | 32% | 9% | 15% | – | % at 1 μM hA2B (percentage displacement of specific binding) (hA2BAR): 26%
CC1=C(C(=O)OC(C)C)[C@@H](c2ccco2)n2c(nc3cc(Cl)ccc32)N1 [(S)-16j] | 19% | 48% | 6% | 2.04 ± 0.2 nM | –
CC1=C(C(=O)OC(C)C)[C@H](c2ccoc2)n2c(nc3cc(Cl)ccc32)N1 [(S)-16l] | 25% | 24% | 19% | – | % at 1 μM hA2B (percentage displacement of specific binding) (hA2BAR): 53%
CCOC(=O)C1=C(C)Nc2nc3cc(Br)ccc3n2[C@H]1c1ccoc1 [(S)-16s] | 16% | 11% | 10% | – | % at 1 μM hA2B (percentage displacement of specific binding) (hA2BAR): 34%
CCOC(=O)C1=C(C)Nc2nc3cc(Cl)ccc3n2[C@@H]1c1cocn1 [(S)-18c] | 17% | 22% | 6% | 3.39 ± 0.2 nM | –
CC1=C(C(=O)OC(C)C)[C@@H](c2ccco2)n2c(nc3ccccc32)N1 [(S)-ISAM-140] | 12% | 2% | 4% | 0.89 ± 0.2 nM | Ki hA2B (hA2BAR; [6]): sub-nanomolar
CCCn1c(=O)c2[nH]c(-c3cnn(Cc4cccc(C(F)(F)F)c4)c3)nc2n(CCC)c1=O [CVT-7124] | – | – | – | – | Ki (A2B; [7]): 6 nM
CC1=C(C(=O)OC(C)C)C(c2ccoc2)n2c(nc3ccccc32)N1 (centres unmarked) [IV] | – | – | – | – | % at 1 μM hA1 (percentage displacement of specific binding) (hA1AR [3]): 12%; % at 1 μM hA3 (percentage displacement of specific binding) (hA3AR [4]): 2%; Exp. dG (hA2BAR): -10.83
CCOC(=O)C1=C(C)Nc2nc3ccccc3n2C1c1cocn1 (centres unmarked) [IX] | – | – | – | – | Ki (A2B; [7]): 8.1 nM
c1cncc(Nc2ncc(-c3ccncn3)c(-c3ccco3)n2)c1 [LAS38096, 4′-(2-Furyl)-N-Pyridin-3-Yl-4,5‘-Bipyrimidin-2‘-Amine] | – | – | – | – | Ki (A2B; [7]): 17 nM
CCCn1c(=O)[nH]c2nc(-c3ccc(S(=O)(=O)N4CCN(c5ccc(Br)cc5)CC4)cc3)[nH]c2c1=O [PSB-1901] | – | – | – | – | Ki (A2B; [7]): 0.083 nM
CC1=C(C(=O)OC(C)C)C(c2ccco2)NC(=S)N1 (centres unmarked) [SYAF030] | – | – | – | – | Ki (A2B; [7]): 10.2 nM
O=c1c(-c2ccccc2)nnc2n(-c3ccccc3)c3ccc(Cl)cc3n12 [compound 5] | – | – | – | – | Ki (A2B; [7]): 1.4 nM
C[C@]12CC[C@H]3[C@@H](CCC4=CC(=O)CC[C@@]43C)[C@@H]1CC[C@@H]2O [testosterone, reference compound] | – | – | – | – | half-life at 1 h [5]: 16.1 min
PSB-603 | – | – | – | – | Ki (A2B; Table 8 ref 28, read-out: hA2B Ki): 0.553 nM
